For the test, the system named is mammary tumor derived from RBA CRL-1747 cell line. Briefly: Scintigraphic (planar) imaging in breast tumor-bearing rats. In kind it is in vivo, rat. To be noted: 0.5-4 hrs post-injection. From the text: The camera field of view is 20 cm×20 cm with an edge of 1.3 cm. The intrinsic spatial resolution is 3 mm and the matrix is 64×64.
To ascertain whether the tumor uptake by with ^99mTc-GAP-EDL was related to estrogen receptors, we performed a blocking study. […] Computer outlined regions of interest (ROI) (counts per pixel) were used to determine tumor-to-background count density ratios.
Scintigraphic images were obtained at 0.5-4.0 hrs after i.v. injection of ^99mTc-GAP-COX2i (300 μCi/rat, iv) and imaged at 0.5-4.0 hrs in mammary tumor-bearing rats (derived from RBA CRL-1747 cell line). Whole-body autoradiograms were obtained by a quantitative image analyzer (Cyclone Storage Phosphor System, Packard, Meridian, Conn.). Following intravenous injection of ^99mTc-GAP-COX2i (100 μCi/rat, iv), athymic nude mice bearing human uterine sarcoma in the right leg were killed at 1 hour and the body was fixed in carboxymethyl cellulose (3%). […] Each section was thawed and mounted on a slide. […]
Scintigraphic images were obtained at 0.5-4.0 hrs after i.v. injection of ^99“Tc-GAP-LAS or GAP-HCD (300 μCi/rat, iv) and imaged at 0.5-4.0 hrs in mammary tumor-bearing rats (derived from RBA CRL-1747 cell line). Whole-body autoradiogramrs were obtained by a quantitative image analyzer (Cyclone Storage Phosphor System, Packard, Meridian, Conn.). […]

The structures appear in SMILES notation.

With `O=C([O-])CN(CCN(CC(=O)[O-])CC(=O)[O-])CCN(CC(=O)[O-])CC(=O)[O-].[99Tc+4]` [^99mTc-DTPA], the “tumor visualization on scintigraphic images” value is recorded as “tumor could be visualized”.
